Several values for one entry are separate records, joined by “and”; a condition that tells them apart may be missing. Identical values can stand only once. Inconclusive results and toxic doses are left out. How the source made its calls: active means survival T/C of 150% or more; inactive means T/C below 125% in these data.
Test system: P388 leukemia ip, CD2F1 mice, survival T/C
Assay: NCI In Vivo Anticancer Drug Screen. Data for tumor model P388 Leukemia (intraperitoneal) in CD2F1 (CDF1) mice
Conditions: endpoint: median survival time, higher = longer survival
Procedure, shortened: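 Mice carrying the transplanted tumor received test compound or vehicle. Survival was recorded in each group, and the value is the treated-group measurement divided by that of the vehicle-treated control group.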

[1] = dose: 100.0 mg/kg/injection, schedule: Q01DX001 (ip), vehicle: saline
[2] = dose: 60.0 mg/kg/injection, schedule: Q01DX005 (ip), vehicle: Klucel (hydroxypropylcellulose) (HPC)
[3] = dose: 120.0 mg/kg/injection, schedule: Q01DX005 (ip), vehicle: Klucel (hydroxypropylcellulose) (HPC)
[4] = dose: 240.0 mg/kg/injection, schedule: Q01DX005 (ip), vehicle: Klucel (hydroxypropylcellulose) (HPC)
[5] = dose: 60.0 mg/kg/injection, schedule: Q01DX005 (ip), vehicle: saline with Tween-80
[6] = dose: 120.0 mg/kg/injection, schedule: Q01DX005 (ip), vehicle: saline with Tween-80
[7] = dose: 240.0 mg/kg/injection, schedule: Q01DX005 (ip), vehicle: saline with Tween-80
[8] = dose: 100.0 mg/kg/injection, schedule: Q04DX002 (ip), vehicle: saline with Tween-80
[9] = dose: 200.0 mg/kg/injection, schedule: Q04DX002 (ip), vehicle: saline with Tween-80
[10] = dose: 50.0 mg/kg/injection, schedule: Q01DX005 (ip), vehicle: saline with Tween-80
[11] = dose: 100.0 mg/kg/injection, schedule: Q01DX005 (ip), vehicle: saline with Tween-80
[12] = dose: 200.0 mg/kg/injection, schedule: Q01DX005 (ip), vehicle: saline with Tween-80
[13] = dose: 3.13 mg/kg/injection, schedule: Q01DX009 (ip), vehicle: water
[14] = dose: 6.25 mg/kg/injection, schedule: Q01DX009 (ip), vehicle: water
[15] = dose: 12.5 mg/kg/injection, schedule: Q01DX009 (ip), vehicle: water
[16] = dose: 25.0 mg/kg/injection, schedule: Q01DX009 (ip), vehicle: water
[17] = dose: 50.0 mg/kg/injection, schedule: Q01DX005 (ip), vehicle: Klucel (hydroxypropylcellulose) (HPC)
[18] = dose: 100.0 mg/kg/injection, schedule: Q01DX005 (ip), vehicle: Klucel (hydroxypropylcellulose) (HPC)
[19] = dose: 200.0 mg/kg/injection, schedule: Q01DX005 (ip), vehicle: Klucel (hydroxypropylcellulose) (HPC)

Measured: T/C

C=C1CC2(CC3C4CC3CC2C4)OC1=O (stereo unspecified)
inactive: [1] 98 % of control | dose: 200.0 mg/kg/injection, schedule: Q01DX001 (ip), vehicle: saline 99 % of control | dose: 400.0 mg/kg/injection, schedule: Q01DX001 (ip), vehicle: saline 100 % of control

Nc1c(S(=O)(=O)O)cc(Nc2cccc(CO)c2)c2c1C(=O)c1ccccc1C2=O
inactive: dose: 12.5 mg/kg/injection, schedule: Q01DX001 (ip), vehicle: saline 99 % of control | dose: 25.0 mg/kg/injection, schedule: Q01DX001 (ip), vehicle: saline 99 % of control | dose: 50.0 mg/kg/injection, schedule: Q01DX001 (ip), vehicle: saline 98 % of control | [1] 106 % of control

Oc1cccc(N2CCN(c3cccc(O)c3)CC2)c1
inactive: [2] 91 % of control | [3] 89 % of control

CC(=O)/C=C/c1ccc(Cl)c(Cl)c1
inactive: dose: 50.0 mg/kg/injection, schedule: Q01DX009 (ip), vehicle: saline with Tween-80 118 % of control | dose: 100.0 mg/kg/injection, schedule: Q01DX009 (ip), vehicle: saline with Tween-80 111 % of control | dose: 200.0 mg/kg/injection, schedule: Q01DX009 (ip), vehicle: saline with Tween-80 111 % of control

NC1=C(O)C(=O)C(c2c3ccccc3cc3ccccc23)O1 (stereo unspecified)
inactive: [2] 94 % of control | [3] 108 % of control | [4] 86 % of control

O=c1ccn2ccccc2n1
inactive: dose: 50.0 mg/kg/injection, schedule: Q01DX009 (ip), vehicle: saline 95 % of control | dose: 50.0 mg/kg/injection, schedule: Q04DX003 (ip), vehicle: saline 91 % of control | dose: 100.0 mg/kg/injection, schedule: Q01DX009 (ip), vehicle: saline 86 % of control | dose: 100.0 mg/kg/injection, schedule: Q04DX003 (ip), vehicle: saline 100 % of control | dose: 200.0 mg/kg/injection, schedule: Q01DX009 (ip), vehicle: saline 95 % of control | dose: 200.0 mg/kg/injection, schedule: Q04DX003 (ip), vehicle: saline 91 % of control

O=C(/C=C/c1ccc(Cl)cc1)NC1C=Nc2ccc([N+](=O)[O-])cc2NC1=O (stereo unspecified)
inactive: [5] 105 % of control | [6] 100 % of control | [7] 98 % of control

c1ccc(-c2ncc3n(-c4ccccc4)cnn23)cc1
inactive: [8] 95 % of control | [9] 86 % of control | dose: 400.0 mg/kg/injection, schedule: Q04DX002 (ip), vehicle: saline with Tween-80 89 % of control

O=C1C2=C(Nc3cc(Cl)ccc3N2)OC1c1c[nH]c2ccc(COc3ccccc3)cc12 (stereo unspecified)
inactive: [5] 93 % of control | [6] 93 % of control | [7] 89 % of control

CCN(CC)CCCC(C)Nc1ccnc2cc(N(C)C)ccc12 (stereo unspecified)
inactive: dose: 6.25 mg/kg/injection, schedule: Q01DX009 (ip), vehicle: saline with Tween-80 93 % of control | dose: 12.5 mg/kg/injection, schedule: Q01DX009 (ip), vehicle: saline with Tween-80 109 % of control | dose: 25.0 mg/kg/injection, schedule: Q01DX009 (ip), vehicle: saline with Tween-80 111 % of control

CC1=CC[C@@H]2C(C#N)C3(CCC12C)OCCO3 (stereo partly specified)
inactive: [10] 92 % of control | [11] 94 % of control | [12] 94 % of control

COC(=O)c1cn[nH]c1CC#N
inactive: [8] 92 % of control | [9] 100 % of control

N=C(N)c1ccc(N=Nc2c(O)ccc3cc(O)ccc23)cc1
inactive: dose: 3.12 mg/kg/injection, schedule: Q01DX005 (ip), vehicle: Klucel (hydroxypropylcellulose) (HPC) 104 % of control | dose: 6.25 mg/kg/injection, schedule: Q01DX005 (ip), vehicle: Klucel (hydroxypropylcellulose) (HPC) 101 % of control and 102 % of control | dose: 12.5 mg/kg/injection, schedule: Q01DX005 (ip), vehicle: Klucel (hydroxypropylcellulose) (HPC) 116 % of control (2×) and 95 % of control

OCC1OC(n2nnc3cc[nH]c(=S)c32)C(O)C1O (stereo unspecified)
inactive: dose: 1.56 mg/kg/injection, schedule: Q01DX009 (ip), vehicle: water 106 % of control | [13] 99 % of control | [14] 98 % of control | [15] 107 % of control | [16] 97 % of control

CCCCCCCCCC[N+]1(CC)CCCCCC1
inactive: dose: 3.12 mg/kg/injection, schedule: Q01DX009 (ip), vehicle: saline 90 % of control | dose: 6.25 mg/kg/injection, schedule: Q01DX009 (ip), vehicle: saline 98 % of control

CCCCCCCCC(=O)Nc1ncc([N+](=O)[O-])s1
inactive: dose: 50.0 mg/kg/injection, schedule: Q01DX009 (ip), vehicle: Klucel (hydroxypropylcellulose) (HPC) 113 % of control | dose: 100.0 mg/kg/injection, schedule: Q01DX009 (ip), vehicle: Klucel (hydroxypropylcellulose) (HPC) 115 % of control | dose: 200.0 mg/kg/injection, schedule: Q01DX009 (ip), vehicle: Klucel (hydroxypropylcellulose) (HPC) 100 % of control

CCc1cccc2c(NCCCCCCNc3c4ccccc4nc4c(CC)cccc34)c3ccccc3nc12
inactive: dose: 0.63 mg/kg/injection, schedule: Q01DX009 (ip), vehicle: other 113 % of control | dose: 1.25 mg/kg/injection, schedule: Q01DX009 (ip), vehicle: other 109 % of control | dose: 2.5 mg/kg/injection, schedule: Q01DX009 (ip), vehicle: other 112 % of control | dose: 3.75 mg/kg/injection, schedule: Q01DX009 (ip), vehicle: other 105 % of control | dose: 5.0 mg/kg/injection, schedule: Q01DX009 (ip), vehicle: other 110 % of control | dose: 7.5 mg/kg/injection, schedule: Q01DX009 (ip), vehicle: other 114 % of control | dose: 15.0 mg/kg/injection, schedule: Q01DX009 (ip), vehicle: other 96 % of control

CC(C)(C)OC(=O)N1CCCC1C(=O)N1CCCC1C(=O)Oc1ccccc1 (stereo unspecified)
inactive: dose: 50.0 mg/kg/injection, schedule: Q01DX005 (ip), vehicle: saline 100 % of control | dose: 100.0 mg/kg/injection, schedule: Q01DX005 (ip), vehicle: saline 100 % of control | dose: 200.0 mg/kg/injection, schedule: Q01DX005 (ip), vehicle: saline 100 % of control

C=CC1CN2CCC1CC2C(=O)c1ccnc2ccc(OC)cc12 (stereo unspecified)
inactive: [10] 100 % of control | [11] 100 % of control | [12] 100 % of control

C/C(=C(/O)c1ccc(Cl)cc1)c1nc2cc(Cl)cc([N+](=O)[O-])c2[nH]c1=O
inactive: [2] 100 % of control | [3] 107 % of control | [4] 111 % of control

NC(Cc1c[nH]c(=O)[nH]c1=O)C(=O)O (stereo unspecified)
inactive: [17] 96 % of control | [18] 100 % of control | [19] 88 % of control

CC(=O)NC(CCS)C(N)=O (stereo unspecified)
inactive: [17] 87 % of control | [18] 99 % of control | [19] 97 % of control

Cn1nc(-c2ccccc2)c(-c2cc(-c3ccccc3)n[nH]2)c(N)c1=O
inactive: [5] 87 % of control | [6] 89 % of control | [7] 97 % of control

COc1cc2ccncc2cc1O
inactive: [13] 91 % of control | [14] 95 % of control | [15] 100 % of control | [16] 95 % of control | dose: 50.0 mg/kg/injection, schedule: Q01DX009 (ip), vehicle: water 103 % of control

— PubChem BioAssay AID330 (DTP/NCI, 2004)
